Measurements: PubChem BioAssay (NCI)
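Interpolation was linear, between the two tested concentrations surrounding the appropriate level; five concentrations were tested over 48 hours in 96-well plates. Abbreviation: GI50, concentration required for 50% inhibition of growth. The concentration for full growth arrest is given as TGI.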

Columns and labels:
Experiment in all cases: growth of human tumour cells (NCI), 48 h
BT-549 breast = test system: BT-549 breast
SK-MEL-28 melanoma = test system: SK-MEL-28 melanoma
UO-31 renal = test system: UO-31 renal
HL-60(TB) leukemia = test system: HL-60(TB) leukemia
CAKI-1 renal = test system: CAKI-1 renal
SK-MEL-5 melanoma = test system: SK-MEL-5 melanoma
RXF 393 renal = test system: RXF 393 renal
NCI-H460 lung = test system: NCI-H460 lung
TK-10 renal = test system: TK-10 renal
MDA-MB-435 = test system: MDA-MB-435
SR leukemia = test system: SR leukemia
NCI/ADR-RES ovarian = test system: NCI/ADR-RES ovarian
K-562 leukemia = test system: K-562 leukemia
SF-539 CNS = test system: SF-539 CNS
SK-MEL-2 melanoma = test system: SK-MEL-2 melanoma
MDA-MB-231 breast = test system: MDA-MB-231 breast
HOP-92 NSCLC = test system: HOP-92 NSCLC
A498 renal = test system: A498 renal
U251 CNS = test system: U251 CNS
SNB-75 CNS = test system: SNB-75 CNS
SW-620 colon = test system: SW-620 colon
HOP-62 NSCLC = test system: HOP-62 NSCLC
A549 NSCLC = test system: A549 NSCLC
OVCAR-8 ovarian = test system: OVCAR-8 ovarian
MCF7 breast = test system: MCF7 breast
UACC-257 melanoma = test system: UACC-257 melanoma
M14 melanoma = test system: M14 melanoma
SK-OV-3 ovarian = test system: SK-OV-3 ovarian
MDA-MB-468 breast = test system: MDA-MB-468 breast
KM12 colon = test system: KM12 colon
PC-3 prostate = test system: PC-3 prostate
IGROV1 ovarian = test system: IGROV1 ovarian
CCRF-CEM leukemia = test system: CCRF-CEM leukemia
UACC-62 melanoma = test system: UACC-62 melanoma
HS 578T breast = test system: HS 578T breast
ACHN renal = test system: ACHN renal
RPMI-8226 leukemia = test system: RPMI-8226 leukemia
SF-295 CNS = test system: SF-295 CNS
HT29 colon = test system: HT29 colon
HCT-116 colon = test system: HCT-116 colon
OVCAR-5 ovarian = test system: OVCAR-5 ovarian
COLO 205 colon = test system: COLO 205 colon
HCT-15 colon = test system: HCT-15 colon
EKVX NSCLC = test system: EKVX NSCLC
DU-145 prostate = test system: DU-145 prostate
SF-268 CNS = test system: SF-268 CNS
OVCAR-3 ovarian = test system: OVCAR-3 ovarian
SNB-19 CNS = test system: SNB-19 CNS
T-47D breast = test system: T-47D breast
NCI-H23 lung = test system: NCI-H23 lung
NCI-H226 lung = test system: NCI-H226 lung
MALME-3M melanoma = test system: MALME-3M melanoma
SN12C renal = test system: SN12C renal
786-0 renal = test system: 786-0 renal
HCC-2998 colon = test system: HCC-2998 colon
MOLT-4 leukemia = test system: MOLT-4 leukemia
NCI-H522 lung = test system: NCI-H522 lung
OVCAR-4 ovarian = test system: OVCAR-4 ovarian

Compound: COc1ccc2c(c1)c(-c1cc(N)n3nc(-c4cn(C)c5ccccc45)cc3n1)cn2C
- GI50 (BT-549 breast): 1870 nM
- TGI (BT-549 breast): 3570 nM
- GI50 (SK-MEL-28 melanoma): 1800 nM
- TGI (SK-MEL-28 melanoma): 3320 nM
- GI50 (UO-31 renal): 1590 nM
- TGI (UO-31 renal): 2980 nM
- GI50 (HL-60(TB) leukemia): 1400 nM
- TGI (HL-60(TB) leukemia): 3940 nM
- GI50 (CAKI-1 renal): 1710 nM
- TGI (CAKI-1 renal): 3140 nM
- GI50 (SK-MEL-5 melanoma): 1810 nM
- TGI (SK-MEL-5 melanoma): 3230 nM
- GI50 (RXF 393 renal): 1850 nM
- TGI (RXF 393 renal): 3410 nM
- GI50 (NCI-H460 lung): 1900 nM
- TGI (NCI-H460 lung): 3600 nM
- GI50 (TK-10 renal): 1910 nM
- TGI (TK-10 renal): 3360 nM
- GI50 (MDA-MB-435): 1760 nM
- TGI (MDA-MB-435): 3210 nM
- GI50 (SR leukemia): 288 nM
- TGI (SR leukemia): 1130 nM
- GI50 (NCI/ADR-RES ovarian): 2030 nM
- TGI (NCI/ADR-RES ovarian): 4180 nM
- GI50 (K-562 leukemia): 401 nM
- TGI (K-562 leukemia): 4500 nM
- GI50 (SF-539 CNS): 1700 nM
- TGI (SF-539 CNS): 3190 nM
- GI50 (SK-MEL-2 melanoma): 1700 nM
- TGI (SK-MEL-2 melanoma): 3230 nM
- GI50 (MDA-MB-231 breast): 1820 nM
- TGI (MDA-MB-231 breast): 3270 nM
- GI50 (HOP-92 NSCLC): 1760 nM
- TGI (HOP-92 NSCLC): 3410 nM
- GI50 (A498 renal): 1760 nM
- TGI (A498 renal): 3270 nM
- GI50 (U251 CNS): 1840 nM
- TGI (U251 CNS): 3440 nM
- GI50 (SNB-75 CNS): 1430 nM
- TGI (SNB-75 CNS): 2800 nM
- GI50 (SW-620 colon): 1800 nM
- TGI (SW-620 colon): 3600 nM
- GI50 (HOP-62 NSCLC): 1730 nM
- TGI (HOP-62 NSCLC): 3350 nM
- GI50 (A549 NSCLC): 1810 nM
- TGI (A549 NSCLC): 3510 nM
- GI50 (OVCAR-8 ovarian): 1880 nM
- TGI (OVCAR-8 ovarian): 3530 nM
- GI50 (MCF7 breast): 934 nM
- TGI (MCF7 breast): 2520 nM
- GI50 (UACC-257 melanoma): 1770 nM
- TGI (UACC-257 melanoma): 3260 nM
- GI50 (M14 melanoma): 1850 nM
- TGI (M14 melanoma): 3590 nM
- GI50 (SK-OV-3 ovarian): 1920 nM
- TGI (SK-OV-3 ovarian): 3510 nM
- GI50 (MDA-MB-468 breast): 1670 nM
- TGI (MDA-MB-468 breast): 3310 nM
- GI50 (KM12 colon): 2100 nM
- TGI (KM12 colon): 4480 nM
- GI50 (PC-3 prostate): 1800 nM
- TGI (PC-3 prostate): 3690 nM
- GI50 (IGROV1 ovarian): 1730 nM
- TGI (IGROV1 ovarian): 3250 nM
- GI50 (CCRF-CEM leukemia): 864 nM
- TGI (CCRF-CEM leukemia): 5380 nM
- GI50 (UACC-62 melanoma): 1730 nM
- TGI (UACC-62 melanoma): 3140 nM
- GI50 (HS 578T breast): 2180 nM
- TGI (HS 578T breast): 4770 nM
- GI50 (ACHN renal): 1650 nM
- TGI (ACHN renal): 3020 nM
- GI50 (RPMI-8226 leukemia): 2080 nM
- TGI (RPMI-8226 leukemia): 6070 nM
- GI50 (SF-295 CNS): 1780 nM
- TGI (SF-295 CNS): 3430 nM
- GI50 (HT29 colon): 1860 nM
- TGI (HT29 colon): 3380 nM
- GI50 (HCT-116 colon): 1160 nM
- TGI (HCT-116 colon): 2420 nM
- GI50 (OVCAR-5 ovarian): 1950 nM
- TGI (OVCAR-5 ovarian): 3850 nM
- GI50 (COLO 205 colon): 1920 nM
- TGI (COLO 205 colon): 3670 nM
- GI50 (HCT-15 colon): 1040 nM
- TGI (HCT-15 colon): 2680 nM
- GI50 (EKVX NSCLC): 1460 nM
- TGI (EKVX NSCLC): 3300 nM
- GI50 (DU-145 prostate): 2050 nM
- TGI (DU-145 prostate): 4010 nM
- GI50 (SF-268 CNS): 1970 nM
- TGI (SF-268 CNS): 4080 nM
- GI50 (OVCAR-3 ovarian): 1940 nM
- TGI (OVCAR-3 ovarian): 3680 nM
- GI50 (SNB-19 CNS): 2180 nM
- TGI (SNB-19 CNS): 5000 nM
- GI50 (T-47D breast): 1940 nM
- TGI (T-47D breast): 4150 nM
- GI50 (NCI-H23 lung): 1970 nM
- TGI (NCI-H23 lung): 4090 nM
- GI50 (NCI-H226 lung): 2040 nM
- TGI (NCI-H226 lung): 4930 nM
- GI50 (MALME-3M melanoma): 1700 nM
- TGI (MALME-3M melanoma): 3090 nM
- GI50 (SN12C renal): 1660 nM
- TGI (SN12C renal): 3050 nM
- GI50 (786-0 renal): 1550 nM
- TGI (786-0 renal): 2970 nM
- GI50 (HCC-2998 colon): 2090 nM
- TGI (HCC-2998 colon): 3650 nM
- GI50 (MOLT-4 leukemia): 1690 nM
- TGI (MOLT-4 leukemia): 5410 nM
- GI50 (NCI-H522 lung): 1650 nM
- TGI (NCI-H522 lung): 3150 nM
- GI50 (OVCAR-4 ovarian): 1820 nM
- TGI (OVCAR-4 ovarian): 3280 nM
